Laboratory results as given in US11286268B1, “EIF4E-inhibiting compounds and methods” (EFFECTOR THERAPEUTICS, INC., priority 2019, dated 2022).
Like-named read-outs stand apart in the source and are kept apart here.

Biological target: recombinant eIF4E (Homo sapiens (Human), UniProt P06730)
Assay: Fluorescence polarization competition assay for eIF4E binding potency
Experimental: Compounds were screened for eIF4E binding potency using a fluorescence polarization competition assay. All binding reactions were performed in fluorescence polarization buffer (FPB) containing 20 mM Tris pH 7.5, 100 mM NaCl, 1 mM DTT, and 0.02% Tween-20. Final binding reactions contained 75 nM recombinant eIF4E (Beryllium, custom order), 20 nM EDA-m^7GDP-ATTO-550 (Jena Bioscience, NU-827-550) and varying concentrations of the inhibitory compound of interest. Final DMSO concentration in each reaction was 1%.
eIF4E protein was pre-incubated with EDA-m^7GDP-ATTO-550 in FPB at 2× concentrations for 5 minutes prior to the addition of compounds. Compounds (100×) were prepared using 3-fold serial dilutions in 100% DMSO, and subsequently diluted 1:50 in FPB to produce 2× stocks. 50 μl of 2× eIF4E/EDA-m^7GDP-ATTO-550 were transferred to the wells of a 96-well half-area black flat bottom polystyrene plate. 50 μl of 2× test compound were added, and binding reactions were allowed to equilibrate for 30 minutes at room temperature while protected from light. The fluorescent polarization signal was detected using a Victor 2 multi-label counter (Perkin Elmer) and the concentration necessary to achieve inhibition of eIF4E/EDA-m^7GDP-ATTO-550 binding by 50% (IC50) was calculated using data from an 8-point compound dilution series.
In Table 4A, IC50 values of less than 0.05 μM are labelled as “+++”, from 1 to 0.05 μM are labelled as “++”, and greater than 1 μM are labelled as “+”. ND=not determined.

[1] = fluorescence polarization competition, 75 nM recombinant eIF4E, 20 nM EDA-m7GDP-ATTO-550, IC50 class, read-out: elF4E FP
[2] = inhibition of eIF4E/EDA-m7GDP-ATTO-550 binding by 50%, Table 4B calculated values, read-out: IC50
[3] = inhibition of eIF4E/EDA-m7GDP-ATTO-550 binding, calculated IC50 values, Table 4B, read-out: IC50

Chain of recombinant eIF4E (P06730 whole entry): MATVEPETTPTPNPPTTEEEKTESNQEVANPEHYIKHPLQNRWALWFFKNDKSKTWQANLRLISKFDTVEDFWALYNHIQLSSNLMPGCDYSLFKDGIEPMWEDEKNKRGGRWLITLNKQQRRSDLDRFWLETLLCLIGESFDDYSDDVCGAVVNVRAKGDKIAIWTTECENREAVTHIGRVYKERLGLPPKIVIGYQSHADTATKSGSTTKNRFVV

SMILES: Cc1nc2cc(C(F)(F)F)c(OCC(F)(F)F)c(C#N)c2c(=O)n1CCOc1ccc(Cl)cc1-c1ccnc2c(C(=O)O)csc12 [compound 1153]
- IC50 [1]: < 50 nM
- IC50 [2]: 38 nM

SMILES: Cc1nc(N2CCN(C)C3CC32)c(C#N)c2c(=O)n(CC#Cc3ccc(Cl)cc3-c3ccnc4c(C(=O)O)csc34)c(C)nc12 (stereo not shown) [compound 656]
- IC50 [1]: < 50 nM
- IC50 [2]: 33.4 nM

SMILES: Cc1nc2cnc(N3CCN(CCF)CC3)c(C#N)c2c(=O)n1CCOc1ccc(Cl)cc1-c1ccnc2c(C(=O)O)csc12 [compound 1302]
- IC50 [3]: 30.7 nM

SMILES: CC(=O)c1csc2c(-c3cc(Cl)ccc3C#CCn3c(C)nc4cc(C(F)(F)F)c(N5CC6(C5)CN(C5CC5)C6)c(C#N)c4c3=O)ccnc12 [compound 1178]
- IC50 [1]: < 50 nM
- IC50 [2]: 22.9 nM

SMILES: Cc1nc2ccc(C(F)F)c(C#N)c2c(=O)n1CCOc1ccc(Cl)cc1-c1ccnc2c(C(=O)O)csc12 [compound 160]
- IC50 [1]: < 50 nM
- IC50 [2]: 8.83 nM

SMILES: Cc1nc2cc(C(F)(F)F)c(N3CCC4(CC3)CN(CC(F)F)C4)c(C#N)c2c(=O)n1CCOc1ccc(Cl)cc1-c1ccnc2c(C(=O)NS(C)(=O)=O)csc12 [compound 1913]
- IC50 [3]: 22.9 nM

SMILES: Cc1cc(-c2cc(Cl)ccc2OCCn2c(C)nc3c(F)cc(C(F)F)c(C#N)c3c2=O)c2scc(C(=O)NC(=O)N(C)C)c2n1 [compound 594]
- IC50 [1]: > 1000 nM
- IC50 [2]: 1350 nM

SMILES: Cc1nc2cncc(C#N)c2c(=O)n1CCOc1ccc(Cl)cc1-c1cccc(P(=O)(O)OC(C)C)c1 [150FB]
- IC50 [2]: 143 nM

SMILES: Cc1nc2cc(C(F)(F)F)c(N3CCN(C)CC3)c(C#N)c2c(=O)n1CCOc1ccc(Cl)cc1-c1ccnc2c(P(=O)(O)O)csc12 [compound 1613]
- IC50 [3]: 16.1 nM

SMILES: Cc1nc2c(C(F)F)nc(C#N)cc2c(=O)n1CCOc1ccc(Cl)cc1-c1cccc(C(=O)O)c1 [compound 33]
- IC50 [1]: 50 to 1000 nM
- IC50 [2]: 203 nM

SMILES: Cc1nc2cnc(N3CCN(C)CC3)c(C#N)c2c(=O)n1CC#Cc1ccc(Cl)cc1-c1ccnc2c(C(=O)O)csc12 [compound 842]
- IC50 [1]: < 50 nM
- IC50 [2]: 20.9 nM

SMILES: Cc1ccc(-c2ncc3nc(C)n(CCOc4ccc(Cl)cc4-c4cc(C)nc5c(C(=O)O)csc45)c(=O)c3c2C#N)cc1 [compound 946]
- IC50 [1]: < 50 nM
- IC50 [2]: 27.7 nM

SMILES: CCN(c1ncc2nc(C)n(CC#Cc3ccc(Cl)cc3-c3ccnc4c(C(=O)NS(=O)(=O)c5cccnc5)csc34)c(=O)c2c1C#N)C1CCN(C2CC(F)(F)C2)CC1 [compound 1839]
- IC50 [3]: 34.5 nM

SMILES: Cc1cc(-c2cc(Cl)ccc2OCCc2c(C)n(C)c3cc(C(F)(F)F)cc(C#N)c3c2=O)c2scc(C(=O)O)c2n1 [compound 409]
- IC50 [1]: < 50 nM
- IC50 [2]: 13.3 nM

SMILES: Cc1nc2cc(C(F)(F)F)c(CN3CCCCC3)c(C#N)c2c(=O)n1CCOc1ccc(Cl)cc1-c1ccnc2c(C(=O)O)csc12 [compound 528]
- IC50 [1]: < 50 nM
- IC50 [2]: 27.1 nM

SMILES: Cc1nc2cnc(N3CCC(N(C)C4CC4)CC3)c(C#N)c2c(=O)n1CC#Cc1ccc(Cl)cc1-c1ccnc2c(C(=O)O)csc12 [compound 1527]
- IC50 [3]: 15.6 nM

SMILES: Cc1cc(-c2cc(Cl)ccc2OCCn2c(C)nc3cc(C(F)(F)F)c(N4CCN(CCO)CC4)c(C#N)c3c2=O)c2sc(C)c(C(=O)O)c2n1 [compound 1393]
- IC50 [3]: 13.2 nM

SMILES: Cc1nc2cnc(C3=CCN(C4CC4)CC3)c(C#N)c2c(=O)n1CC#Cc1ccc(Cl)cc1-c1ccnc2c(C(=O)O)csc12 [compound 1461]
- IC50 [3]: 13.8 nM

SMILES: Cc1cc(-c2cc(Cl)ccc2OCCn2c(C)nc3cc(C(F)(F)F)c(CC4CNC4)c(C#N)c3c2=O)c2scc(C(=O)O)c2n1 [compound 424]
- IC50 [1]: < 50 nM
- IC50 [2]: 4.08 nM

SMILES: Cc1nc2cc(Cl)c(OC(F)(F)F)c(C#N)c2c(=O)n1CCOc1ccc(Cl)cc1-c1ccnc2c(C(=O)O)csc12 [compound 550]
- IC50 [1]: 50 to 1000 nM
- IC50 [2]: 87.8 nM

SMILES: Cc1nc2cc(C(F)(F)F)c(N3CCC4(CC3)CN(CC(F)F)C4)c(C#N)c2c(=O)n1CCOc1ccc(Cl)cc1-c1ccnc2c(C(=O)O)csc12 [compound 1912]
- IC50 [3]: 5.96 nM

SMILES: Cc1cc(-c2c(C(F)F)cc3nc(C)n(CCOc4ccc(Cl)cc4-c4cc(C)nc5c(C(=O)O)csc45)c(=O)c3c2C#N)cc(C)n1 [compound 1385]
- IC50 [3]: 7.24 nM
